Reference: patent US12491187B2, “Use of MCT1 inhibitors to enhance insulin sensitivity” (H. LEE MOFFIT CANCER CENTER AND RESEARCH INSTITUTE, INC., priority 2022, dated 2025)

Assays:
Assay type in all cases: cell-based, murine
3T3-L1-shScramble cells = assay: Glucose uptake (Glucose Uptake-Glo) in shScramble control cells; details: 1 μM for 72 hr, 175 nM insulin
Procedure: Cell Line Development: Lenti plasmid vectors containing shRNA targeting MCT1 or a shScramble sequence were purchased from Genocopia. Lentiviral particles were produced using HEK293T cells and a third-generation packaging system, MISSION Lentiviral Packaging Mix, as per manufacturer's (Sigma-Aldrich) recommendations. To generate shMCT1 cells, 3T3-L1 cells were seeded and transduced with optimized titers of freshly harvested lentivirus. 12 hr after transduction, medium was changed, and cells were allowed to recover for 24 h before being placed under antibiotic selection (2 μg/mL puromycin [Clontech]) for 3-6 days. Cells surviving antibiotic selection were harvested for both reverse transcription quantitative chain polymerase reaction (RT-qPCR) and immunoblotting analyses.
Glucose Uptake: 3T3-L1 cells were seeded and differentiated in clear bottom 96-well plates (Corning®). After differentiation, cells were treated with or without […] AZD3965 for 24 hr, 48 hr or 72 hr as illustrated in FIG. 7 (schematic outline of experimental procedure). The cells were incubated in serum free media the night before performing the assay. […] Glucose Uptake was measured using the Glucose Uptake-Glo™ Assay (Promega®) according to the manufacturer's protocol. The data generated were normalized by dividing the relative luminescence units (RLU) measured in insulin stimulated wells by vehicle treated controls. […]

[1] = tested on: differentiated 3T3-L1 adipocytes; assay: NAD+/NADH ratio (NAD+/NADH-Glo); details: 1 μM
Procedure: NAD+/NADH Ratio: 3T3-L1 cells were seeded, differentiated and treated with or without AZD3965 (1 μM) for 15 min, 30 min, 1 hr, 4 hr, 8 hr or 24 hr in clear 96 well plates (Corning®). Following incubation with the compound, the NAD+/NADH-Glo™ (Promega®) kit was used to measure both the NAD+ and NADH concentrations within each sample according to the manufacturer's protocol. Briefly, samples were lysed and split into 2 separate white 96 well plates (Corning®). One plate was treated with a strong acid (0.4N HCl) to eliminate NADH in the sample while the other plate was treated with a strong base (0.2N NaOH) to eliminate NAD+, and both plates were incubated at 60° C. for 15 minutes. Samples were then neutralized and subjected to the NAD+/NADH-Glo™ assay. Within this assay, in the presence of NAD+ or NADH, an enzyme ‘Reductase’ reduces a pro-luciferin reductase substrate to form luciferin which emits a luminescent signal directly proportional to the quantity of NAD+ or NADH within the sample. Luminescence was read on a spectrophotometer (FlexStation 3; Molecular Devices). To calculate the NAD+/NADH ratio for each sample, luminescence from acid-treated samples, (reflecting NAD+level), was divided by the luminescence signal from the corresponding base-treated samples (reflecting NADH levels).

[2] = tested on: differentiated 3T3-L1 (WT) cells; details: mouse
Procedure: Cell Viability: 3T3-L1 cells were seeded and differentiated in white, clear bottom, 384-well plates (Corning®). Following differentiation, adipocytes were treated for 24, 48 or 72 hr with varying concentrations of AZD3965 ranging from 0.1 nM to 10 µM. Following the indicated incubation period, cells were assayed with CytoTox-Glo™ (Promega®) according the manufacturer's instructions to assess cell toxicity. Briefly, this assay is a luminescent cytotoxicity kit that measures the relative number of dead cells in a population through the addition of a cell impermeant luminogenic substrate which luminesces in the presence of ‘dead-cell protease’, a protein released from membrane-compromised, dead cells. Luminescence was read on a spectrophotometer (FlexStation 3; Molecular Devices). The data generated were normalized by dividing the relative luminescence units (RLU) collected for each experimental condition by the average RLU of ‘basal’ untreated cells considered to be 100% viable.

[3] = tested on: differentiated 3T3-L1 adipocytes; assay: Hyperplasia (intracellular triglycerides, Triglyceride-Glo)
Procedure: Hyperplasia (Intracellular Triglycerides): 3T3-L1 cells were seeded and differentiated in clear bottom 96-well plates (Corning®). After differentiation, cells were treated with or without 1 μM AZD3965 for 24 hr, 48 hr or 72 hr. After compound incubation, media was changed to normal growth media with or without 100 nM insulin and cultured for an additional 72 hrs. Upon completion of the second incubation period, adipocytes were lysed and subjected to the Triglyceride-Glo™ Assay (Promega®) according to the manufacturer's instructions. The luminescent signal produced is proportional to the amount of triglycerides detected within the sample. Luminescence was read on a spectrophotometer (FlexStation 3; Molecular Devices).

[4] = tested on: differentiated 3T3-L1 (WT) cells; assay: Oil Red O staining of fully differentiated adipocytes; details: 1 μM, 24 hr, 48 hr or 72 hr
Procedure: Differentiation Protocol: The 3T3-L1 differentiation protocol was adapted from Green and Meuth (1974) (Zebisch, K, et al. Anal. Biochem. 2012 425:88-90; Green, H, et al. Cell 1974 3:127-133). Cells were seeded at approximately 80% confluency and allowed to reach confluency prior to induction of differentiation. 1-2 days post confluency, growth media was changed to ‘day 0’ media consisting of media supplemented with 0.5 mM 1-methyl-3-isobutyl xanthine (IBMX), 1 µM dexamethasone, and 10 μg/mL insulin. On ‘day 3’ media was changed to growth media with 10 μg/mL insulin only, and on ‘day 6’ media was replaced with normal growth media. After day 6, the complete media was refreshed every 2 days. Using Oil Red O staining, RT-qPCR and immunoblotting, it was determined that 3T3-L1 cells were fully differentiated into lipid-laden adipocytes by ‘day 8’ of the protocol, as reported by others (Petersen, C, et al. Sci. Rep. 2017 7:13101; Mangum, L H, et al. Toxicol. Lett. 2015 238:65-71). All differentiation experiments were performed on cells between passage 4 and 6 to ensure differentiation efficiency was consistent. Oil Red O Staining: Cells were then fixed with 4% PFA for 10 minutes. […] 10× images of cells were taken from randomized fields of view with the Cytation 5 Cell Imaging Multi-Mode reader (BioTek Instruments). Lipid content was also quantified on the Cytation 5.

Question: Which results are given for Cc1[nH]nc(C(F)(F)F)c1Cc1sc2c(c1C(=O)N1C[C@](C)(O)CO1)c(=O)n(C)c(=O)n2C(C)C [AZD3965, 5-[[(4S)-4-hydroxy-4-methyl-2-isoxazolidinyl]carbonyl]-3-methyl-1-(1-methylethyl)-6-[[5-methyl-3-(trifluoromethyl)-1H-pyrazol-4-yl]methyl]-thieno[2,3-d]pyrimidine-2,4 (1H, 3H)-dione]?
Answer: insulin-stimulated glucose uptake (3T3-L1-shScramble cells): augmented; NAD+/NADH ratio ([1]; all time points measured (15 min-24 hr)): significant change; NAD+/NADH ratio ([1]; first 8 hr of treatment): significant decrease; cytotoxicity / cell viability [2]: not due to AZD3965-induced cytotoxicity; total triglyceride content ([3]; pretreated 1 μM 24 hr and 72 hr, then cultured 72 hr with 100 nM insulin): did not reach statistical significance; total triglyceride content ([3]; pretreated 1 μM 48 hr, then cultured 72 hr with 100 nM insulin): significantly more triglycerides; total triglyceride content ([3]; pretreated 1 μM up to 72 hr, then cultured 72 hr without insulin): significantly more triglycerides; lipid content (Oil Red O staining) of differentiated adipocytes [4]: progressive decrease in lipid content
